The melting point is the temperature of the solid-liquid transition.

Data set [1] deals with mushroom tyrosinase (Agaricus bisporus, UniProt C7FF04). Nature of the data set: Tyrosinase inhibition qualitative enzymatic reaction screening. It counts as biochemical. Conditions: second hour of assay; p > 0.05. As for the experimental part: The ability to inhibit the activity of tyrosinase enzyme was evaluated using the enzymatic method described by Macrini et al., with modifications. This method relies on the inhibition of tyrosinase in the presence of its substrate tyrosine, interrupting the synthesis of melanin.
Aliquots (10 µL) of a solution composed of 125 U/mL of mushroom tyrosinase (Sigma-Aldrich, St. Louis, MO, USA) were added to 96-well microplates, and then pH 6.8 phosphate buffer solution (70 µL) and the analogs (60 µL, 350 µg/mL, in 2.5% DMSO) were also added. […] To the resultant mixture, L-tyrosine (70 µL, Sigma-Aldrich) at a concentration of 0.3 mg/mL in distilled water was added (final volume in the wells = 210 µL). The absorbances of the microplate wells were read on a spectrophotometric microplate reader (SpectraCount, Packard, Meriden, CT, USA) at 510 nm (T0). Then, the microplates were incubated at 30 ± 1 °C for 60 minutes and the absorbances were registered again (T1). An additional incubation for 60 minutes at 30 ± 1 °C was done and after this period a new spectrophotometric reading was conducted (T2). The inhibitory percentage at the two times (T1 and T2) was obtained according to the formula to inhibitory activity percentage as follows: [drawing 9] (1) Where IC% = inhibitory activity; C = negative control absorbance; S = sample or positive control absorbance (absorbance at time T1 or T2 minus the absorbance at time T0).

Data set [2] has as its system B16-F10 murine melanoma cells. Also on record: method as in PMID 22189272. Conditions: cited from earlier work.
Data set [3] has as its target tyrosinase. Also on record: method as in earlier work. Conditions: ref 13 (Bernard and Berthon); cited from earlier work.

≈ marks a conversion by molar mass, not a printed value.

Chain of mushroom tyrosinase (C7FF04 1-392): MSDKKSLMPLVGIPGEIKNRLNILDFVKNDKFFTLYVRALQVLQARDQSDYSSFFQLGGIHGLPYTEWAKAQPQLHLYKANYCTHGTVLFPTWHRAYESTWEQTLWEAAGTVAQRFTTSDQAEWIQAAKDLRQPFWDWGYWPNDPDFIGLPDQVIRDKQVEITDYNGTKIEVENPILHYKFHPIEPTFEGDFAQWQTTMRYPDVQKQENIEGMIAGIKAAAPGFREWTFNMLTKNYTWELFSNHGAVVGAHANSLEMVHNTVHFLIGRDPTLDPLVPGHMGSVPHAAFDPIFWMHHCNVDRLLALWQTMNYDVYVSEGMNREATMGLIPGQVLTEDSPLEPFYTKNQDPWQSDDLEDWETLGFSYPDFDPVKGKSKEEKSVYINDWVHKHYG

Take `O=[N+]([O-])c1ccc(/C=N/c2ccccc2)cc1` [Analog C]: the melting point lay within 89.6 to 90.7 °C. Consider `Oc1ccc(/C=N/c2ccccc2)cc1` [Analog D], for which the “inhibitory ability compared with kojic acid” value in data set [1] is “statistically equal to that of kojic acid”.

`Oc1ccccc1/C=N/c1ccccc1` [Analog E]: the “inhibitory ability compared with kojic acid” value in data set [1] was “statistically equal to that of kojic acid”.

Regarding `COc1cc(/C=N/c2ccccc2)ccc1O` [Analog F], the melting point lay within 53.1 to 54.2 °C. The “inhibitory ability compared with kojic acid” value in data set [1] is “statistically equal to that of kojic acid”. Consider `Oc1ccc(/C=C/c2cc(O)cc(O)c2)cc1` [resveratrol, Resveratrol], for which, in data set [2], the cellular melanin production entry is reported as “significantly suppressed” and the “cytotoxicity (concentration without any cytotoxicity)” value was greater than 200 µM. In data set [3], the “IC50 (tyrosinase inhibition)” value is given as 57.05 µg/mL (≈ 250 µM).
